Results as given in patent publication US8765746B2 (Millennium Pharmaceuticals, Inc., priority 2010, dated 2014).

How the values were obtained:
Assay type in all cases: biochemical
PI3Kalpha = target: T1, PI3Kalpha (Homo sapiens, UniProt P42336); assay: Human PI3Kα enzyme assay (HTRF); details: for inhibition at 1.11 µM: read-out: PI3Kalpha % inh; for PI3Kalpha % inh: at 1.11 μM
T1 construct: His (N); host or cells: SF9 insect cells (baculovirus)
From the text: (§1) The catalytic subunits of PI3Ks are cloned into either pDEST8(p110 alpha) or pDEST10(p110beta, p110delta, and p110gamma) as N-terminal His tagged fusion proteins using the Gateway system (Invitrogen, catalog#11804-010 for pDEST8 and 11806-015 for pDEST10). The sequences are verified before recombinant protein expression using the Baculovirus Expression System with Gateway® Technology. The accession numbers for the subunits are as follows:
(§2) The regulatory subunits of PI3Ks are cloned into pDEST8 as un-tagged protein using the Gateway system (Catalog#11804-010). The sequences are verified before recombinant protein expression using the Baculovirus Expression System with Gateway® Technology. The accession numbers for the subunits are as follows:
(§3) For expression of the p110 complexes, the p85 (MOI of 4) is co-infected with p110 alpha, beta, and delta respectively (1MOI) in SF9 cells and harvested at 60 hours post co-infection. P110 gamma was infected at 1 MOI and harvested at 60 hours post infection.
(§4) For purification, PI3Ks are purified by Ni-NTA Agarose (Qiagen #30250) followed by Mono Q 10/100 GL (Ge Healthcare #17-5167-01). VPS34 is purified by Glutathione Sepharose 4 Fast Flow (GE Healthcare #17-5132-03) followed by HiTrap Q (GE Healthcare #17-1153-01).
1) Human PI3Kα enzyme assay method
(§5) 0.5 uL compounds in DMSO are added to wells of a 384 well microtitre plate (Corning 3575). At room temperature: 10 ul PI3K reaction buffer (50 mM Hepes, 5 mM DTT, 150 mM NaCl, 10 mM beta-glycerophosphate, 10 mM MgCl2, 0.25 mM sodium cholate and 0.001% CHAPS, pH 7.00) containing ATP (25 uM, Promega) is added followed immediately by 10 ul PI3K reaction buffer containing di-C8 PI(4,5)P2 (3.5 uM, CellSignals) and PI3Kalpha (0.4875 nM, Millennium Protein Sciences Group) and the mixture is incubated with shaking at room temperature for 30 minutes. Then 5 ul PI3K stop mix (50 mM Hepes, 5 mM DTT, 150 mM NaCl, 0.01% Tween-20, 15 mM EDTA and 25 nM biotin-PI(3,4,5)P3 (Echelon) is added to quench the reaction followed immediately by addition of 5 ul HTRF detection mix (50 mM Hepes, 5 mM DTT, 150 mM NaCl, 0.01% Tween-20, 40 mM KF, 10 nM GST:GRP-1 PH domain (Millennium Protein Sciences Group), 15 nM Streptavidin-XL (CisBio) and 0.375 nM anti-GST Eu++ antibody (CisBio) at pH 7.00). The plates are then incubated for 1 hour at room temperature with shaking and then read on a BMG PheraStar Plus reader.

PI3Kbeta = target: T2, PI3Kbeta (Homo sapiens, UniProt P42338); assay: Human PI3K beta enzyme assay (HTRF, as for PI3K alpha); details: at 1.11 μM; for inhibition at 1.11 µM: read-out: PI3Kbeta % inh
T2 construct: His (N); host or cells: SF9 insect cells (baculovirus)
T2 sequence (P42338 whole entry): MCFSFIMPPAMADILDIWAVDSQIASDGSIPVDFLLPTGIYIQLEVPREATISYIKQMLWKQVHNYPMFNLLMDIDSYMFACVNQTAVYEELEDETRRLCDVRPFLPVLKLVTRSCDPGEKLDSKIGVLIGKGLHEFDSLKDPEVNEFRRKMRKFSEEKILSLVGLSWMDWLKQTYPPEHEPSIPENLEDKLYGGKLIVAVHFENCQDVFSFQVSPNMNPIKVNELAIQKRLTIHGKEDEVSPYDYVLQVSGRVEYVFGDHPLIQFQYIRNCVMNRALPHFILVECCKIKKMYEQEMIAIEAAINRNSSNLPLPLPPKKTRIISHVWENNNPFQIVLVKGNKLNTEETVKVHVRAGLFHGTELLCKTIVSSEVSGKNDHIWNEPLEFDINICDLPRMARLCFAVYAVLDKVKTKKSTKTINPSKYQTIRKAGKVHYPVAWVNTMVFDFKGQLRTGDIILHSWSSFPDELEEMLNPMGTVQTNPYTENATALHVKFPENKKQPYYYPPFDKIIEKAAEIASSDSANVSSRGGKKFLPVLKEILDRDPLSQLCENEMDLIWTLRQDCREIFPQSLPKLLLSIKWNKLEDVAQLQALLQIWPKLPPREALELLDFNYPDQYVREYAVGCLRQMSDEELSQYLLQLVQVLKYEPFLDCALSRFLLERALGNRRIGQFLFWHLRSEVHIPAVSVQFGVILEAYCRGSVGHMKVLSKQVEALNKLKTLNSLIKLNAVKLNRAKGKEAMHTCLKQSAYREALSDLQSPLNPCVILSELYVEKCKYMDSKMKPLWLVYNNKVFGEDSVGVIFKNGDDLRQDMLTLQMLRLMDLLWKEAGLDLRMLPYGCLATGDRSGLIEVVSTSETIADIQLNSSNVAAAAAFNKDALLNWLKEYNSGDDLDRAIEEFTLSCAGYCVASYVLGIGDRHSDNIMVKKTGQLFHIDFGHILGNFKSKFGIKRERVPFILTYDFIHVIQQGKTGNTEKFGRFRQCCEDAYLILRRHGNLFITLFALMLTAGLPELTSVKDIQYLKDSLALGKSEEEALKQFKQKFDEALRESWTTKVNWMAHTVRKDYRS
T2 sequence (P27986 whole entry partner): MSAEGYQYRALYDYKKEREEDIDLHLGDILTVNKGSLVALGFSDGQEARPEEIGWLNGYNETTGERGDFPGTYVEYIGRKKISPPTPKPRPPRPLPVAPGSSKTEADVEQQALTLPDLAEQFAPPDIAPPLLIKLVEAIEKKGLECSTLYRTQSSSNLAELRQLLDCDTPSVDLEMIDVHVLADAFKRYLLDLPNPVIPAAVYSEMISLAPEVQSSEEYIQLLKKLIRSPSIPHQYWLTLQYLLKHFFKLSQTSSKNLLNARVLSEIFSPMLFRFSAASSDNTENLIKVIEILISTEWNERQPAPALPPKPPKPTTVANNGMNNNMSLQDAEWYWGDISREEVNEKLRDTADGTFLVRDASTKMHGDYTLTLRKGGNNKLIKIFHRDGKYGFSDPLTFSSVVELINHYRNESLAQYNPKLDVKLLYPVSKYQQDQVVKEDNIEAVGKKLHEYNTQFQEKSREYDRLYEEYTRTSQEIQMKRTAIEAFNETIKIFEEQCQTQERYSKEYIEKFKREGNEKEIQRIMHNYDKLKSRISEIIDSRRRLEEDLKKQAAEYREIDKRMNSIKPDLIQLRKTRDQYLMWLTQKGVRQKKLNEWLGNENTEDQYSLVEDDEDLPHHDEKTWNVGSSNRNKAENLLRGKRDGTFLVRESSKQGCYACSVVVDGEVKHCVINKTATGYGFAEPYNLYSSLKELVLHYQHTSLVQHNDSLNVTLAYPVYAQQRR
From the text: as §1, §2, §3, §4, §5
(§6) 2) Human PI3K beta, delta and gamma isoforms are tested using the procedure described for PI3K alpha above but with the following changes: PI3K beta (5.25 nM), PI3K delta (0.75 nM) and PI3K gamma (5 nM). All isoforms supplied by Millennium Protein Science Group.

PI3Kgamma = target: T3, PI3Kgamma (Homo sapiens, UniProt P48736); assay: Human PI3K gamma enzyme assay (HTRF, as for PI3K alpha); details: for inhibition at 1.11 µM: read-out: PI3Kgamma % inh
T3 construct: His (N); host or cells: SF9 insect cells (baculovirus)
T3 sequence (P48736 whole entry): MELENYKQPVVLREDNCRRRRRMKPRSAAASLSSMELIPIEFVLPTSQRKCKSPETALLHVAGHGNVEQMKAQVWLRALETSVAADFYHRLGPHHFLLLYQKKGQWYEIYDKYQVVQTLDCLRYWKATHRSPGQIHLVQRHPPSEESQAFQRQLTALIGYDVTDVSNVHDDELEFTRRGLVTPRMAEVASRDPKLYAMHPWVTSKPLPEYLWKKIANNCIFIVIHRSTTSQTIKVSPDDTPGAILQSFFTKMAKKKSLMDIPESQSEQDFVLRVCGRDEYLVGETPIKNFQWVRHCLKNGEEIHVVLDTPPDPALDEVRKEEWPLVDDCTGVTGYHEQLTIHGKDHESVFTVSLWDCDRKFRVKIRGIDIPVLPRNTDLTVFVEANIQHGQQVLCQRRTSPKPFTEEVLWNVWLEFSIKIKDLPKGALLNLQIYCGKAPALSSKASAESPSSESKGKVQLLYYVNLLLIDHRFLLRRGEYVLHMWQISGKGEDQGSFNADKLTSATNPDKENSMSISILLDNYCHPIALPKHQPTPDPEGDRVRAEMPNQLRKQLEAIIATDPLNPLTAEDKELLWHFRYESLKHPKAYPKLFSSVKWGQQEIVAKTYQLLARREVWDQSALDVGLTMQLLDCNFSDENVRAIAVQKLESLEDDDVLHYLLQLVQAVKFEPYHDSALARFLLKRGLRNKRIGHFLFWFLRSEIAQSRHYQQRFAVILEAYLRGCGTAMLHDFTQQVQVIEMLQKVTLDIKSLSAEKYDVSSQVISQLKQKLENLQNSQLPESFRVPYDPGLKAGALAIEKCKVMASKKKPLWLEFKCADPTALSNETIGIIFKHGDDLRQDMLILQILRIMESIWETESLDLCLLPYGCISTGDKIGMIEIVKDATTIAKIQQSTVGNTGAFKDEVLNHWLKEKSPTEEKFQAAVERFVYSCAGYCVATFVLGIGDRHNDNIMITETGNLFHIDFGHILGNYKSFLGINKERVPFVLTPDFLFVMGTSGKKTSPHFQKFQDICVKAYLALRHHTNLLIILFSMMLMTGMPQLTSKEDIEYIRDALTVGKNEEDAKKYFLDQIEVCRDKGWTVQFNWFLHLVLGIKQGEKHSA
From the text: as §1, §2, §3, §4, §5, §6

PI3Kdelta = target: T4, PI3Kdelta (Homo sapiens, UniProt O00329); assay: Human PI3K delta enzyme assay (HTRF, as for PI3K alpha); details: for inhibition at 1.11 µM: read-out: PI3Kdelta % inh
T4 construct: His (N); host or cells: SF9 insect cells (baculovirus)
T4 sequence (O00329 whole entry): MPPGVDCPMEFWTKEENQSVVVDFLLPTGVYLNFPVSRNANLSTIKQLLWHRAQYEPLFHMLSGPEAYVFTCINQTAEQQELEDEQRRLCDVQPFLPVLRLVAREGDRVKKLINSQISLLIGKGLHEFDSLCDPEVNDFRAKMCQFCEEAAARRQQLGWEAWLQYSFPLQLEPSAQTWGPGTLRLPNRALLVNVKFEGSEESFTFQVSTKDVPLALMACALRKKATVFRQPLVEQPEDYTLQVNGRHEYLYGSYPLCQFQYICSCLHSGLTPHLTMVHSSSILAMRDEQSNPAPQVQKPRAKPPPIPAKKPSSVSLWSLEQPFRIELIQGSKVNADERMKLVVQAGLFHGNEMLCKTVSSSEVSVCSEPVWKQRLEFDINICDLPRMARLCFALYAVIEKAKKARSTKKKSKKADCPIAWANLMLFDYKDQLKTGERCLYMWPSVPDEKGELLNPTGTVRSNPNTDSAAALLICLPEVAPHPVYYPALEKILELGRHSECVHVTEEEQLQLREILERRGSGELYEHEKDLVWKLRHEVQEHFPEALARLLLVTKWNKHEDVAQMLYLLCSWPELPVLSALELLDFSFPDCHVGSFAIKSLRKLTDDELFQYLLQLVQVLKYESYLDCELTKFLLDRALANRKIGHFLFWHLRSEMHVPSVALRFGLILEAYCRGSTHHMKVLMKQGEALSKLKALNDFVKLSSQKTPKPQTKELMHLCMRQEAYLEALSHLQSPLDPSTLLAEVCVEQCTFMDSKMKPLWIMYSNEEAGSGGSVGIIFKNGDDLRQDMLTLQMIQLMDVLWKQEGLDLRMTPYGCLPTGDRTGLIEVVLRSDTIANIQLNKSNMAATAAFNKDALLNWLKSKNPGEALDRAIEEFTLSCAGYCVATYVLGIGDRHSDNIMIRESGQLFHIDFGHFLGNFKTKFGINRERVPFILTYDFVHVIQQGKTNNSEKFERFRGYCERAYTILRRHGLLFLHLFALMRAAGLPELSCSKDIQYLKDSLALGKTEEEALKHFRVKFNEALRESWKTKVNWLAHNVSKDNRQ
T4 sequence (P27986 whole entry partner): as the sequence (P27986 whole entry partner) above
From the text: as §1, §2, §3, §4, §5, §6

T1 sequence (P42336 whole entry): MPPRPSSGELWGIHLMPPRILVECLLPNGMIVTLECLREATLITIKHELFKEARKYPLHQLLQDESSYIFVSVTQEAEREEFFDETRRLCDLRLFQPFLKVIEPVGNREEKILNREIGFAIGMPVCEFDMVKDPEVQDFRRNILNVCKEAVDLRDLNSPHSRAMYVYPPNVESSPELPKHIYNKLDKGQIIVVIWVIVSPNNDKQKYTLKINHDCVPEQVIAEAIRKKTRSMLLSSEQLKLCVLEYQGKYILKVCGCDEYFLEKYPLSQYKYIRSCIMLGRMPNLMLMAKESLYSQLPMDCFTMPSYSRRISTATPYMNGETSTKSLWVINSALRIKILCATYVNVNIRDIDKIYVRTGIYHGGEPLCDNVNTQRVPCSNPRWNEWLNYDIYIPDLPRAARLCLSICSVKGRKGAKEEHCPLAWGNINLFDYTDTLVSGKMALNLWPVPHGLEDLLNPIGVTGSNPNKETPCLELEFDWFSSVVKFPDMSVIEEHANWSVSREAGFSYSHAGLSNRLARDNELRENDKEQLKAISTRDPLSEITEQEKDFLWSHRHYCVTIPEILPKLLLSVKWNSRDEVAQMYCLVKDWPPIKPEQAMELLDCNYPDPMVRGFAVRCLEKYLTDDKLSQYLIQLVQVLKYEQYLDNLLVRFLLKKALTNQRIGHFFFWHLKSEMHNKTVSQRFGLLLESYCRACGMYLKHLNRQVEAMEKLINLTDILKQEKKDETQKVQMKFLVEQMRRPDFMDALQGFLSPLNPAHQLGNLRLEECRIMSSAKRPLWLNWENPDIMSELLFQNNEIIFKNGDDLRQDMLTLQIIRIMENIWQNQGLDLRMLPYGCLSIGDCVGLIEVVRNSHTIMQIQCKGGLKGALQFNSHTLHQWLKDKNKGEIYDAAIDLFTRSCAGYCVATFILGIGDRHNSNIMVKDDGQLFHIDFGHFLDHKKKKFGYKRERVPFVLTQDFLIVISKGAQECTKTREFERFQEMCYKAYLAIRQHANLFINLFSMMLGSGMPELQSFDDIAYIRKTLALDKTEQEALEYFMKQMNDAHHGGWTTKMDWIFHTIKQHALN
T1 sequence (P27986 whole entry partner): as the sequence (P27986 whole entry partner) above

| Compound | inhibition at 1.11 µM (PI3Kalpha) [%] | inhibition at 1.11 µM (PI3Kbeta) [%] | inhibition at 1.11 µM (PI3Kgamma) [%] | inhibition at 1.11 µM (PI3Kdelta) [%] | PI3Kalpha % inh (PI3Kalpha) [%] | PI3Kbeta % inh (PI3Kbeta) [%] | other results |
| --- | --- | --- | --- | --- | --- | --- | --- |
| NC(=O)[C@@H]1NC(=O)c2sc(N3CCOCC3)cc2[C@H]1c1ccc(Cl)c(Cl)c1 (relative stereo) [Compound 146, rel-(4R,5R)-4-(3,4-dichlorophenyl)-2-(morpholin-4-yl)-7-oxo-4,5,6,7-tetrahydrothieno[2,3-c]pyridine-5-carboxamide] | 40.4 | 107 | 50.7 | 99.7 |  |  |  |
| O=C1CC(c2ccc3ccccc3c2)c2cc(N3CCOCC3)sc21 (stereo not shown) [Compound 119] | 42.4 | 107 | 60.3 | 99.8 |  |  |  |
| O=C1NCCC(c2ccc(Cl)cc2)c2cc(N3CCOCC3)sc21 (stereo not shown) [Compound 148] |  |  | 13.2 | 98.2 | 24.59 | 118.63 |  |
| N#Cc1c(N2CCOCC2)sc2c1C(c1c(F)cc(Cl)cc1F)CNC2=O (stereo not shown) [Compound 151] | 43.1 | 103 | 41 | 90 |  |  |  |
| CC(C)NC(=O)[C@@H]1NC(=O)c2sc(N3CCOCC3)cc2[C@H]1c1ccc(Cl)cc1 [Compound 162] | 7.94 | 70.6 | 3.59 | 41.8 |  |  |  |
| Cc1cc(-c2nc3c(s2)C(=O)NCC3c2ccc3ccccc3c2)ccn1 (stereo not shown) [Compound 179] | 21.6 | 107 |  |  |  |  |  |
| COC(=O)c1[nH]c(=O)c2sc(N3CCOCC3)cc2c1-c1ccc(Cl)c(Cl)c1 [Compound 184, methyl 4-(3,4-dichlorophenyl)-2-(morpholin-4-yl)-7-oxo-6,7-dihydrothieno[2,3-c]pyridine-5-carboxylate] | 6.62 | 77.5 |  |  |  |  |  |
| O=C1NCC(c2ccc3ccncc3c2)c2nc(N3CCOCC3)sc21 (stereo not shown) [Compound 189] | 25.9 | 116 |  |  |  |  |  |
| O=C1NCC=C(c2ccc3ccncc3c2)c2nc(N3CCOCC3)sc21 [Compound 195] | 16.5 | 62.5 |  |  |  |  |  |
| O=C1N[C@@H](C(=O)NCCCO)[C@H](c2ccc(Cl)cc2)c2cc(N3CCOCC3)sc21 [Compound 200] |  |  |  |  | 48.20 | 53.94 |  |
| O=C1N[C@@H](CO)CC(c2ccc3ccccc3c2)c2nc(N3CCOCC3)sc21 (stereo partly shown) [Compound 202] |  |  |  |  | 88.75 | 113.55 |  |
| CCNC(=O)[C@@H]1NC(=O)c2sc(N3CCOCC3)cc2[C@H]1c1ccc(Cl)cc1 [Compound 203] |  |  |  |  | 40.46 | 66.37 |  |
| O=C1N[C@@H](C(=O)NCCO)[C@H](c2ccc(Cl)cc2)c2cc(N3CCOCC3)sc21 [Compound 204] |  |  |  |  | 51.34 | 60.14 |  |
| Cc1cc(C2CNC(=O)c3sc(N4CCOCC4)cc32)ccc1Cl (stereo not shown) [Compound 205] |  |  |  |  | 28.04 | 96.83 |  |
| CNC(=O)[C@@H]1NC(=O)c2sc(-c3ccncc3)cc2[C@H]1c1ccc(Cl)cc1 [Compound 206] | 41.8 | 58.5 |  |  |  |  |  |
| CNC(=O)[C@@H]1NC(=O)c2sc(N3CCOCC3)cc2[C@H]1c1ccc(Cl)cc1 [Compound 212] |  |  |  |  | 54.25 | 65.59 |  |

More lines, main results first:

| inhibition at 1.11 µM (PI3Kalpha) [%] | inhibition at 1.11 µM (PI3Kbeta) [%] | inhibition at 1.11 µM (PI3Kgamma) [%] | inhibition at 1.11 µM (PI3Kdelta) [%] | PI3Kalpha % inh (PI3Kalpha) [%] | PI3Kbeta % inh (PI3Kbeta) [%] | Compound | other results |
| --- | --- | --- | --- | --- | --- | --- | --- |
| 39.6 | 106 | 52.9 | 105 |  |  | O=C1N[C@@H](CO)[C@H](c2ccc(Cl)c(Cl)c2)c2cc(N3CCOCC3)sc21 (relative stereo) [Compound 192, rel-(4R,5R)-4-(3,4-dichlorophenyl)-5-(hydroxymethyl)-2-(morpholin-4-yl)-5,6-dihydrothieno[2,3-c]pyridin-7(4H)-one] |  |
|  |  | 10.4 | 49.6 | 32.28 | 101.46 | CNC(=O)[C@@H]1NC(=O)c2sc(N3CCOCC3)cc2[C@H]1c1ccc(Cl)cc1 [Compound 123] |  |
| 12.2 | 93.5 | 9.41 | 59.2 |  |  | O=C1NCC(c2ccc(Cl)cc2)c2nc(N3CCOCC3)sc21 (stereo not shown) [Compound 124] |  |
| 35 | 110 | 30.7 | 102 |  |  | O=C1N[C@@H](CO)[C@H](c2ccc(Cl)cc2)c2cc(N3CCOCC3)sc21 [Compound 133] |  |
|  |  |  |  | 17.00 | 87.47 | CCCOC(=O)[C@@H]1NC(=O)c2sc(N3CCOCC3)cc2[C@H]1c1ccc(Cl)cc1 [Compound 136] | PI3Kgamma % inh (PI3Kgamma; at 1.11 μM): 4.11%; PI3Kdelta % inh (PI3Kdelta; at 1.11 μM): 35.35% |
| 26.8 | 108 | 21.5 | 99.9 |  |  | N#Cc1c(N2CCOCC2)sc2c1C(c1ccc(Cl)cc1)CCNC2=O (stereo not shown) [Compound 150] |  |
|  |  | 9.08 | 39.8 | 20.40 | 87.14 | O=C1N[C@@H](C(=O)NCCO)[C@H](c2ccc(Cl)cc2)c2cc(N3CCOCC3)sc21 [Compound 153] |  |
| 4.56 | 82.5 |  |  |  |  | COC(=O)c1cc(C2CCNC(=O)c3sc(N4CCOCC4)nc32)ccc1Cl (stereo not shown) [Compound 174, methyl 2-chloro-5-[2-(morpholin-4-yl)-4-oxo-5,6,7,8-tetrahydro-4H-[1,3]thiazolo[5,4-c]azepin-8-yl]benzoate] |  |
| 29.6 | 58.5 |  |  |  |  | COCCNC(=O)[C@@H]1NC(=O)c2sc(N3CCOCC3)cc2[C@H]1c1ccc(Cl)cc1 [Compound 177] |  |
| 38.4 | 104 |  |  |  |  | N#Cc1c(N2CCOCC2)sc2c1C(c1ccc(Cl)c(Cl)c1)NC2=O (stereo not shown) [Compound 187] |  |
| 38.6 | 113 |  |  |  |  | Cc1cc(C2CNC(=O)c3sc(N4CCOCC4)cc32)ccc1Cl (stereo not shown) [Compound 194] |  |
| 13.7 | 84.3 |  |  |  |  | C=CCC1(C(=O)O)NC(=O)c2sc(N3CCOCC3)cc2C1c1ccc(Cl)c(Cl)c1 (stereo not shown) [Compound 196, 5-allyl-4-(3,4-dichlorophenyl)-2-(morpholin-4-yl)-7-oxo-4,5,6,7-tetrahydrothieno[2,3-c]pyridine-5-carboxylic acid] |  |
|  |  |  |  | 65.98 | 115.55 | N#Cc1c(N2CCOCC2)sc2c1C(c1ccc(Cl)c(Cl)c1)CCNC2=O (stereo not shown) [Compound 199] |  |
| 16.7 |  |  |  |  | 79.38 | O=C1NCCC(c2ccc(Cl)cc2)c2cc(N3CCOCC3)sc21 (stereo not shown) [Compound 201, 4-(4-chlorophenyl)-2-(morpholin-4-yl)-4,5,6,7-tetrahydro-8H-thieno[2,3-c]azepin-8-one] |  |
| 42.9 |  |  |  |  | 62.94 | CNC(=O)[C@@H]1NC(=O)c2sc(C3=CCOCC3)cc2[C@H]1c1ccc(Cl)cc1 [Compound 207] |  |
| 18.4 | 96.8 |  |  |  |  | O=C1NCC(c2ccc(Cl)c(Cl)c2)c2cc(N3CCOCC3)sc21 (stereo not shown) [Compound 208] |  |
| 20.5 |  |  |  |  | 62.33 | O=C1NCC(c2ccc(Cl)cc2)c2cc(N3CCOCC3)sc21 (stereo not shown) [Compound 211] |  |
| 5.63 | 99.3 |  |  |  |  | O=C(O)CN1CC(c2ccc(Cl)cc2)c2cc(N3CCOCC3)sc2C1=O (stereo not shown) [Compound 213, 2-(4-(4-chlorophenyl)-2-morpholino-7-oxo-4,5-dihydrothieno[2,3-c]pyridin-6(7H)-yl)acetic acid] |  |
| 5.13 | 110 |  |  |  |  | NC(=O)CN1CC(c2ccc(Cl)cc2)c2cc(N3CCOCC3)sc2C1=O (stereo not shown) [Compound 214, 2-(4-(4-chlorophenyl)-2-morpholino-7-oxo-4,5-dihydrothieno[2,3-c]pyridin-6(7H)-yl)acetamide] |  |
